Tests used:
Trichoplusia ni = test: In-planta insecticidal efficacy on sprayed green cabbage plants (Abbott and Colby formulas); type: in vivo; conditions: 6 days; for Survival Rate (%): Coragen […] (0.104 ppm chlorantraniliprole) and/or aliphatic acid 750 ppm, 10% isopropanol; for Observed Efficacy, W (%): Coragen […] and/or aliphatic acid 750 ppm, Abbott corrected vs 10% isopropanol control
Procedure: Water and 10% isopropanol were tested as control treatments.
Green cabbage plants (Brassica oleracea var. capitate, Danish Ballhead cultivar) were grown from seed (available from West Coast Seeds, Delta, BC, Canada) in potting soil for 4-6 weeks in a pest-free indoor growing environment. At between 4-6 weeks of age, each cabbage plant was sprayed with 20 mL of treatment solution using a pressurized CO2 sprayer from approximately 18 inches above the plant, and allowed to dry.
While for SF<1, antagonism is present and for SF=1, the efficacy of the compounds is merely additive.

[1] = Solubility / effective solubilized concentration in 10% DMSO/90% PDB by HPLC; conditions: working stock: DMSO stock diluted 10-fold in PDB
Procedure: This solution was diluted 10-fold in potato dextrose broth (PDB) to give a concentration of 0.05 mg/mL in 10% DMSO/90% PDB.
Concentrated stock solutions were prepared by dissolving pesticidal active ingredient in 100% dimethylsulfoxide (DMSO), which were then diluted 10-fold in potato dextrose broth (PDB) to give a working stock solution, as described below: […]

Compound	Survival Rate (%) (Trichoplusia ni)	Observed Efficacy, W (%) (Trichoplusia ni)	effective solubilized concentration [1] [mg/mL]
CCC(N)C(=O)O (stereo not shown) [2-aminobutyric acid]	58.50	8.59	
CCC(C)CCC(=O)O (stereo not shown) [4-methylhexanoic acid]	62.50	2.34	
O=C(O)CCCCCCCCCO [10-hydroxydecanoic acid]	40.50	36.72	
CO/C=C(/C(=O)OC)c1ccccc1Oc1cc(Oc2ccccc2C#N)ncn1 [Azoxystrobin, azoxystrobin]			0.15

From patent US20230047569A1, “PESTICIDAL COMPLEX COMPOSITIONS FOR SYNERGISTIC DELIVERY OF PESTICIDAL ACTIVE INGREDIENTS AND METHODS OF SELECTION THEREOF” (0903608 B.C. Ltd., priority 2019, published 2023)
